Data published in the NIST ThermoML archive (doi:10.1016/j.jct.2013.05.051).
± gives the expanded uncertainty stated by the source.

Assay: xn = mol fraction of the nth substance listed
Settings: Liquid, Vibrating tube method, x2 = 0

CCCCCCC [heptane] + CCCCCCCO
mass density [kg/m3]
Settings	298.15 K	313.15 K	333.15 K	353.15 K	373.15 K	393.15 K
100 kPa	679.5 ± 1.4	666.6 ± 1.4	648.9 ± 1.4	631.2 ± 1.4	–	–
1000 kPa	680.4 ± 1.4	667.6 ± 1.4	650 ± 1.4	632.1 ± 1.4	613.3 ± 1.4	593.5 ± 1.4
5000 kPa	684.2 ± 1.4	671.8 ± 1.4	655 ± 1.4	637.8 ± 1.4	620.1 ± 1.4	601.7 ± 1.4
10000 kPa	688.6 ± 1.4	676.7 ± 1.4	660.6 ± 1.4	644.3 ± 1.4	627.7 ± 1.4	610.6 ± 1.4
15000 kPa	692.8 ± 1.4	681.3 ± 1.4	665.8 ± 1.4	650.3 ± 1.4	634.5 ± 1.5	618.4 ± 1.5
20000 kPa	696.7 ± 1.5	685.6 ± 1.5	670.6 ± 1.5	655.7 ± 1.5	640.7 ± 1.5	625.4 ± 1.5
25000 kPa	700.4 ± 1.5	689.5 ± 1.5	675.1 ± 1.5	660.8 ± 1.5	646.3 ± 1.5	631.7 ± 1.5
30000 kPa	704 ± 1.5	693.5 ± 1.5	679.4 ± 1.5	665.5 ± 1.5	651.6 ± 1.5	637.5 ± 1.5
35000 kPa	707.4 ± 1.5	697.1 ± 1.5	683.4 ± 1.5	670 ± 1.5	656.5 ± 1.5	643 ± 1.5
40000 kPa	710.7 ± 1.5	700.5 ± 1.5	687.3 ± 1.5	674.1 ± 1.5	661.1 ± 1.5	648 ± 1.6
45000 kPa	713.8 ± 1.5	703.9 ± 1.5	690.9 ± 1.5	678.1 ± 1.6	665.5 ± 1.6	652.8 ± 1.6
50000 kPa	716.8 ± 1.5	707.2 ± 1.6	694.4 ± 1.6	682 ± 1.6	669.6 ± 1.6	657.2 ± 1.6
55000 kPa	719.7 ± 1.6	710.3 ± 1.6	697.7 ± 1.6	685.5 ± 1.6	673.5 ± 1.6	661.5 ± 1.6
60000 kPa	722.5 ± 1.6	713.3 ± 1.6	701 ± 1.6	689.1 ± 1.6	677.3 ± 1.6	665.5 ± 1.7
65000 kPa	725.2 ± 1.6	716.1 ± 1.6	704.1 ± 1.6	692.4 ± 1.6	680.8 ± 1.7	669.3 ± 1.7
70000 kPa	727.9 ± 1.6	718.9 ± 1.6	707.1 ± 1.7	695.7 ± 1.7	684.3 ± 1.7	673.1 ± 1.7
80000 kPa	732.9 ± 1.7	724.2 ± 1.7	712.8 ± 1.7	701.7 ± 1.7	690.8 ± 1.7	680.1 ± 1.8
90000 kPa	737.7 ± 1.7	729.3 ± 1.7	718.2 ± 1.8	707.5 ± 1.8	696.9 ± 1.8	686.5 ± 1.8
100000 kPa	742.3 ± 1.8	734 ± 1.8	723.2 ± 1.8	712.8 ± 1.8	702.6 ± 1.9	692.5 ± 1.9
110000 kPa	746.6 ± 1.8	738.6 ± 1.8	728.1 ± 1.8	717.9 ± 1.9	708 ± 1.9	698.2 ± 1.9
120000 kPa	750.7 ± 1.8	742.8 ± 1.9	732.6 ± 1.9	722.7 ± 1.9	713 ± 2	703.4 ± 2
130000 kPa	754.6 ± 1.9	747 ± 1.9	737 ± 1.9	727.3 ± 2	717.9 ± 2	708.5 ± 2
140000 kPa	758.4 ± 1.9	751.1 ± 2	741.1 ± 2	731.6 ± 2	722.3 ± 2.1	713.4 ± 2.1
